In patent US20230203098A1, “HUMAN TRANSFERRIN RECEPTOR BINDING PEPTIDE” (priority 2020, published 2023):
Like-named read-outs stand apart in the source and are kept apart here. Where a SMILES comes first, the peptide text is derived from it. Bridges are numbered along the chain shown (N, C = ends). [ ]: non-standard residue; d: D form. The star is where a group is joined. Ala(imidazo(1,2-a)pyr3yl) = N[C@@H](Cc1cnc2ccccn12)C(=O)O; X2 = O=C(O)c1cc(C(=O)*)ccc1-c1c2ccc(=O)cc-2oc2cc(O)ccc12; PEG12 = NCCOCCOCCOCCOCCOCCOCCOCCOCCOCCOCCOCCOCCC(=O)O; NMePhe(3-Cl) = CN[C@@H](Cc1cccc(Cl)c1)C(=O)O; NMeW = CN[C@@H](Cc1c[nH]c2ccccc12)C(=O)O; NMeY = CN[C@@H](Cc1ccc(O)cc1)C(=O)O; NMeF = CN[C@@H](Cc1ccccc1)C(=O)O; Ahp(2) = CCCCC[C@H](N)C(=O)O; PEG4 = NCCOCCOCCOCCOCCC(=O)O; Tle = CC(C)(C)[C@H](N)C(=O)O

Biological target: transferrin receptor (hTfR) (Homo sapiens, UniProt P02786)
Sequence (P02786 whole entry): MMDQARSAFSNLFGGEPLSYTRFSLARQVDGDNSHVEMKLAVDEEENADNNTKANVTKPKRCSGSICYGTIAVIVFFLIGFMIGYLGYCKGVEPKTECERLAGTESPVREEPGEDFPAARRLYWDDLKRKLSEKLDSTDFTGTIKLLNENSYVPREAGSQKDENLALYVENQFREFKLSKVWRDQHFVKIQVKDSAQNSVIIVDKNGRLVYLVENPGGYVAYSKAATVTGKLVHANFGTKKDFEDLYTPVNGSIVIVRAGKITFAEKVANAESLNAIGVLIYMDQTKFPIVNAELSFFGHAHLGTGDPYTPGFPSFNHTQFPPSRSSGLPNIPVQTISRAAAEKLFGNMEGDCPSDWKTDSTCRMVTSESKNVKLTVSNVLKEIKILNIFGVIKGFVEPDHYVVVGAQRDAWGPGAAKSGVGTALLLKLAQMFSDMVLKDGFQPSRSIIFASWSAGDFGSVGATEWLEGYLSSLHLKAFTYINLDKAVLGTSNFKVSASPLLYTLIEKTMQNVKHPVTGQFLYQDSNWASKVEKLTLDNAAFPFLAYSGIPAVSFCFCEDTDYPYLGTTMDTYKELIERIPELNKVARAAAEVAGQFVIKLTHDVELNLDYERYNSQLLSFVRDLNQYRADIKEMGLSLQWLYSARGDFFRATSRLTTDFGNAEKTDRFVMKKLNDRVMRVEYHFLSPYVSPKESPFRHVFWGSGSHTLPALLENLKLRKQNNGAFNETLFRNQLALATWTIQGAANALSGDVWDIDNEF
Test: Intermolecular interaction evaluation test between transferrin receptor (hTfR) and peptide by surface plasmon resonance (SPR)
Format: binding
How it was run: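 hTfR captured on Ni-NTA chip then amine-coupled; peptides run single-cycle kinetics at 5–100 nM in 10 mM HEPES pH 8.0, 150 mM NaCl, 0.05% Tween 20, 0.1% BSA, 1.0% DMSO. KD from least-squares curve fitting of sensorgrams.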

[1] = SPR, hTfR, class symbols A-D, read-out: KD
[2] = binding to hTfR by SPR, Table 2 peptides, read-out: KD value (SPR) class

CC[C@H](C)[C@@H]1NC(=O)[C@H](Cc2ccc(OC)cc2)NC(=O)[C@H](Cc2ccc(O)cc2)NC(=O)[C@H](CC(N)=O)NC(=O)[C@H](Cc2c[nH]c3ccccc23)N(C)C(=O)[C@H](C(C)C)NC(=O)[C@H](Cc2cccc(Cl)c2)N(C)C(=O)[C@H](C(C)C)NC(=O)[C@H](C)NC(=O)CSC[C@@H](C(=O)NCCOCCOCCOCCOCCC(N)=O)NC(=O)[C@H](Cc2ccc(O)cc2)N(C)C(=O)[C@H](Cc2ccccc2)NC(=O)[C@@H](CCCNC(=N)N)NC(=O)[C@H](CCCNC(=N)N)NC(=O)[C@H](C(C)(C)C)NC1=O [compound 327] ({CH2CO}-AV[NMePhe(3-Cl)]V[NMeW]NYY(Me)I[Tle]R[dR]F[NMeY]C[PEG4]-NH2; thioether N-15)
Kd (surface plasmon resonance, peptide vs hTfR, read-out: KD value, hTfR binding by SPR (class symbol)): 1 to 100 nM

CC[C@H](C)[C@@H]1NC(=O)[C@H](Cc2ccc(O)cc2)NC(=O)[C@H](Cc2ccc(O)cc2)NC(=O)[C@H](CC(N)=O)NC(=O)[C@H](Cc2c[nH]c3ccccc23)NC(=O)[C@H](C(C)C)NC(=O)[C@H](Cc2ccccc2)N(C)C(=O)[C@H](C(C)C)NC(=O)[C@H](C)NC(=O)CSC[C@@H](C(=O)NCC(=O)O)NC(=O)[C@H](Cc2ccc(O)cc2)N(C)C(=O)[C@H](Cc2ccc(O)cc2)NC(=O)[C@H](CCCNC(=N)N)NC(=O)[C@H](CCCNC(=N)N)NC(=O)[C@H]([C@@H](C)CC)NC1=O [compound 421]
Kd (surface plasmon resonance, peptide vs hTfR, read-out: KD value for hTfR by SPR (class symbol)): 1 to 100 nM

CC[C@H](C)[C@@H]1NC(=O)[C@H](Cc2cnc3ccccn23)NC(=O)[C@H](Cc2ccc(O)cc2)NC(=O)[C@H](CC(N)=O)NC(=O)[C@H](Cc2c[nH]c3ccccc23)N(C)C(=O)[C@H](C(C)C)NC(=O)[C@H](Cc2cccc(Cl)c2)N(C)C(=O)[C@H](C(C)C)NC(=O)[C@H](C)NC(=O)CSC[C@@H](C(N)=O)NC(=O)[C@H](Cc2ccc(O)cc2)N(C)C(=O)[C@H](Cc2ccccc2)NC(=O)[C@@H](CCCNC(=N)N)NC(=O)[C@H](CCCNC(=N)N)NC(=O)[C@H]([C@@H](C)CC)NC1=O [compound 456] ({CH2CO}-AV[NMePhe(3-Cl)]V[NMeW]NY[Ala(imidazo(1,2-a)pyr3yl)]IIR[dR]F[NMeY]C-NH2; thioether N-15)
Kd [1]: 1 to 100 nM

CC[C@H](C)[C@@H]1NC(=O)[C@H](Cc2ccc(OC)cc2)NC(=O)[C@H](Cc2ccc(O)cc2)NC(=O)[C@H](CC(N)=O)NC(=O)[C@H](Cc2c[nH]c3ccccc23)N(C)C(=O)[C@H](C(C)C)NC(=O)[C@H](Cc2cccc(Cl)c2)N(C)C(=O)[C@H](C(C)C)NC(=O)[C@H](C)NC(=O)CSC[C@@H](C(=O)NCC(=O)NCC(=O)NCC(=O)NCC(=O)N[C@@H](CO)C(=O)N[C@@H](CO)C(=O)N[C@@H](CS)C(N)=O)NC(=O)[C@H](Cc2ccc(O)cc2)N(C)C(=O)[C@H](Cc2ccccc2)NC(=O)[C@@H](CCCNC(=N)N)NC(=O)[C@H](CCCCCN)NC(=O)[C@H]([C@@H](C)CC)NC1=O [compound 370]
Kd: 1 to 100 nM

CC[C@H](C)[C@@H]1NC(=O)[C@H](Cc2ccc(O)cc2)NC(=O)[C@H](Cc2ccc(O)cc2)NC(=O)[C@H](CC(N)=O)NC(=O)[C@H](Cc2cn(CC(=O)O)c3ccccc23)NC(=O)[C@H](C(C)C)NC(=O)[C@H](Cc2ccccc2)N(C)C(=O)[C@H](C(C)C)NC(=O)[C@H](C)NC(=O)CSC[C@@H](C(N)=O)NC(=O)[C@H](Cc2ccc(O)cc2)N(C)C(=O)[C@H](Cc2ccc(O)cc2)NC(=O)[C@H](CCCNC(=N)N)NC(=O)C(C)(C)NC(=O)[C@H]([C@@H](C)CC)NC1=O [compound 469]
Kd [1]: 1 to 100 nM

CC[C@H](C)[C@@H]1NC(=O)[C@H](Cc2ccc(O)cc2)NC(=O)[C@H](Cc2ccc(O)cc2)NC(=O)[C@H](CC(N)=O)NC(=O)[C@H](Cc2c[nH]c3ccccc23)NC(=O)[C@H](C(C)C)NC(=O)[C@H](Cc2ccccc2)NC(=O)[C@H](C(C)C)NC(=O)[C@H](C)NC(=O)CSC[C@@H](C(N)=O)NC(=O)[C@H](Cc2ccc(O)cc2)N(C)C(=O)[C@H](Cc2ccc(O)cc2)NC(=O)[C@H](CCCNC(=N)N)NC(=O)[C@H](CCCCN)NC(=O)[C@H]([C@@H](C)CC)NC1=O [compound 255]
Kd [2]: < 1 nM

CC[C@H](C)[C@@H]1NC(=O)[C@H](Cc2ccc(O)cc2)NC(=O)[C@H](Cc2ccc(O)cc2)NC(=O)[C@H](CC(N)=O)NC(=O)[C@H](Cc2c[nH]c3cc(F)ccc23)NC(=O)[C@H](C(C)C)NC(=O)[C@H](Cc2ccccc2)N(C)C(=O)[C@H](C(C)C)NC(=O)[C@H](C)NC(=O)CSC[C@@H](C(N)=O)NC(=O)[C@H](Cc2ccc(O)cc2)N(C)C(=O)[C@H](Cc2ccc(O)cc2)NC(=O)[C@H](CCCNC(=N)N)NC(=O)[C@H](CCCNC(=N)N)NC(=O)[C@H]([C@@H](C)CC)NC1=O [compound 270]
Kd [2]: 1 to 100 nM

CC[C@H](C)[C@@H]1NC(=O)[C@H](Cc2ccc(OC)cc2)NC(=O)[C@H](Cc2ccc(O)cc2)NC(=O)[C@H](CC(N)=O)NC(=O)[C@H](Cc2c[nH]c3ccccc23)N(C)C(=O)[C@H](C(C)C)NC(=O)[C@H](Cc2cccc(Cl)c2)N(C)C(=O)[C@H](C(C)C)NC(=O)[C@H](C)NC(=O)CSC[C@@H](C(=O)NCC(=O)NCC(=O)NCC(=O)NCC(=O)N[C@@H](CO)C(=O)N[C@@H](CO)C(=O)N[C@@H](CS)C(N)=O)NC(=O)[C@H](Cc2ccc(O)cc2)N(C)C(=O)[C@H](Cc2ccccc2)NC(=O)[C@@H](CCCNC(=N)N)NC(=O)[C@H](CCCNC(=N)N)NC(=O)[C@H]([C@@H](C)CC)NC1=O [compound 401]
Kd: 1 to 100 nM

CCCCC[C@@H]1NC(=O)[C@H](Cc2ccc(O)cc2)NC(=O)[C@H](CC(N)=O)NC(=O)[C@H](Cc2c[nH]c3ccccc23)NC(=O)[C@H](C(C)C)NC(=O)[C@H](Cc2ccccc2)N(C)C(=O)[C@H](C(C)C)NC(=O)[C@H](C)NC(=O)CSC[C@@H](C(=O)NCCOCCOCCOCCOCCOCCOCCOCCOCCOCCOCCOCCOCCC(N)=O)NC(=O)[C@H](Cc2ccc(O)cc2)N(C)C(=O)[C@H](Cc2ccc(O)cc2)NC(=O)[C@H](CCCNC(=N)N)NC(=O)[C@H](CCCNC(=N)N)NC(=O)[C@H]([C@@H](C)CC)NC(=O)[C@H]([C@@H](C)CC)NC1=O [compound 139] ({CH2CO}-AV[NMeF]VWNY[Ahp(2)]IIRRY[NMeY]C[PEG12]-NH2; thioether N-15)
Kd (SPR, hTfR No. 894 variants with PEG12c linker (Table 2), read-out: KD): 1 to 100 nM

CC[C@H](C)[C@@H]1NC(=O)[C@H](Cc2ccc(O)cc2)NC(=O)[C@H](Cc2ccc(O)cc2)NC(=O)[C@H](CC(N)=O)NC(=O)[C@H](Cc2c[nH]c3ccccc23)NC(=O)[C@H](C(C)C)NC(=O)[C@H](Cc2ccccc2)NC(=O)[C@H](C(C)C)NC(=O)[C@H](C)NC(=O)CSC[C@@H](C(=O)NCCOCCOCCOCCOCCOCCOCCOCCOCCOCCOCCOCCOCCC(=O)N[C@@H](CCCCNC(=O)c2ccc(-c3c4ccc(=O)cc-4oc4cc(O)ccc34)c(C(=O)O)c2)C(N)=O)NC(=O)[C@H](Cc2ccc(O)cc2)N(C)C(=O)[C@H](CO)NC(=O)[C@H](CCCNC(=N)N)NC(=O)[C@H](Cc2ccccc2)NC(=O)[C@H](CCCNC(=N)N)NC(=O)[C@H](CC(=O)O)NC(=O)[C@H]([C@@H](C)CC)NC1=O [compound 150] ({CH2CO}-AVFVWNYYIIDRFRS[NMeY]C[PEG12]K(X2)-NH2; thioether N-17)
Kd (SPR, linker and payload (FITC, VivoTag) conjugates, read-out: KD): 1 to 100 nM

CC[C@H](C)[C@@H]1NC(=O)[C@H](Cc2ccc(O)cc2)NC(=O)[C@H](Cc2ccc(O)cc2)NC(=O)[C@H](CC(N)=O)NC(=O)[C@H](Cc2c[nH]c3ccccc23)NC(=O)[C@H](C(C)C)NC(=O)[C@H](Cc2ccccc2)NC(=O)[C@H](C(C)C)NC(=O)[C@H](C)NC(=O)CSC[C@@H](C(N)=O)NC(=O)[C@H](Cc2ccc(O)cc2)N(C)C(=O)[C@H](Cc2ccc(O)cc2)NC(=O)[C@H](CCCNC(=N)N)NC(=O)[C@H](CCC(=O)O)NC(=O)[C@H]([C@@H](C)CC)NC1=O [compound 251]
Kd [2]: 1 to 100 nM

CC[C@H](C)[C@@H]1NC(=O)[C@H](Cc2ccc(O)cc2)NC(=O)[C@H](Cc2ccc(O)cc2)NC(=O)[C@H](CC(N)=O)NC(=O)[C@H](Cc2c[nH]c3ccccc23)NC(=O)[C@H](C(C)C)NC(=O)[C@H](Cc2ccccc2)N(C)C(=O)[C@H](C(C)C)NC(=O)[C@H](C)NC(=O)CSC[C@@H](C(=O)NCC(=O)NCCOCCOCCOCCOCCOCCOCCOCCOCCOCCOCCOCCOCCC(=O)N[C@@H](CCCCN=[N+]=[N-])C(N)=O)NC(=O)[C@H](Cc2ccc(O)cc2)N(C)C(=O)[C@H](Cc2ccc(O)cc2)NC(=O)[C@H](CCCNC(=N)N)NC(=O)[C@H](CCCNC(=N)N)NC(=O)[C@H]([C@@H](C)CC)NC1=O [compound 501]
Kd (SPR, hTfR, class symbols A-D, read-out: KD (column without head, continuation of the table series)): 1 to 100 nM

CC[C@H](C)[C@@H]1NC(=O)[C@H](Cc2ccc(O)cc2)NC(=O)[C@H](Cc2ccc(O)cc2)NC(=O)[C@H](CC(N)=O)NC(=O)[C@H](Cc2c[nH]c3ccccc23)N(C)C(=O)[C@H](C(C)C)NC(=O)[C@H](Cc2ccccc2)N(C)C(=O)[C@H](C(C)C)NC(=O)[C@H](C)NC(=O)CSC[C@@H](C(=O)NCCOCCOCCOCCOCCOCCOCCOCCOCCOCCOCCOCCOCCC(=O)N[C@@H](CCCCNC(=O)C2CCC(CN3C(=O)C=CC3=O)CC2)C(N)=O)NC(=O)[C@H](Cc2ccc(O)cc2)N(C)C(=O)[C@H](Cc2ccc(O)cc2)NC(=O)[C@H](CCCNC(=N)N)NC(=O)[C@H](CCCNC(=N)N)NC(=O)[C@H]([C@@H](C)CC)NC1=O (some centres unmarked) [compound 183]
Kd (hTfR binding by SPR, hTfR No. 894 variant peptides, linker-added peptides and payload conjugates (Table 2), read-out: KD value obtained from the SPR measurement): 1 to 100 nM

CC[C@H](C)[C@@H]1NC(=O)[C@H](Cc2ccc(OC)cc2)NC(=O)[C@H](Cc2ccc(O)cc2)NC(=O)[C@H](CC(N)=O)NC(=O)[C@H](Cc2c[nH]c3ccccc23)N(C)C(=O)[C@H](C(C)C)NC(=O)[C@H](Cc2cccc(Cl)c2)N(C)C(=O)[C@H](C(C)C)NC(=O)[C@H](C)NC(=O)CSC[C@@H](C(N)=O)NC(=O)[C@H](Cc2ccc(O)cc2)N(C)C(=O)[C@H](Cc2ccccc2)NC(=O)[C@H](CCC(=O)NCCOCCOCCOCCOCCOCCOCCOCCOC)NC(=O)[C@H](CCCNC(=N)N)NC(=O)[C@H]([C@@H](C)CC)NC1=O [compound 384]
Kd (surface plasmon resonance, hTfR, read-out: KD value for hTfR by SPR (class symbol)): < 1 nM
